Here are results for 21 compounds from patent US20040072767A1, “Glucopyranose derivatives and medicaments for preventing and/or treating HIV infection diseases comprising the same as an active ingredient” (ONO PHARMACEUTICAL CO., LTD., priority 1998, published 2004).

In the first assay the target is T1, CXCR4 (Homo sapiens, UniProt P61073).
T1 construct: host or cells: CCRF-HSB2 human T cells
T1 sequence (P61073 whole entry): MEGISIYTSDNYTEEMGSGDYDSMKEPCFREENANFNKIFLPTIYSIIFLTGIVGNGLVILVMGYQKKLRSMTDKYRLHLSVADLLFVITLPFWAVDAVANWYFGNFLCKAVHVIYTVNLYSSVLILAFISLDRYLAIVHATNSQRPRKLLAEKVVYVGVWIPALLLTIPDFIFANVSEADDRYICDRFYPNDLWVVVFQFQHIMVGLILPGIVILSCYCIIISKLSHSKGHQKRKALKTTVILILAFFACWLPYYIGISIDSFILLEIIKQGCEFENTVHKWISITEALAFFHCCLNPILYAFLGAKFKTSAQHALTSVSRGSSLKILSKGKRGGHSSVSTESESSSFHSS
In words: Inhibition experiment against induction activity of SDF-1 on transitory increase of Ca ion. The assay is classed as cell-based. The conditions noted are these: CCRF-HSB-2; test compound 10 μM; SDF-1β 30 nM added 3 minutes after compound; CCRF-HSB2 human T cells loaded with Fura-2AM; read-out: Inhibition rate (%). The text has this:
As described above, for screening a compound inhibiting the binding of HIV to CXCR4 which is a receptor on T cell, it is a more direct procedure to carry out the screening in an assay system using HIV virus. However, use of HIV virus on a large scale screening is not practical owing to its difficulty of handling. On the other hand, since HIV and SDF-1 are both bound to CXCR4, it is expectable that there are some common characteristics between the CXCR4 binding sites of both HIV and SDF-1 sides and the SDF-1 and HIV binding sites of CXCR4 side. Therefore, in order to find out a compound inhibiting the adsorption of HIV virus to a cell, i.e., having an activity mechanism different from the existing anti-AIDS medicaments (inhibitors of reverse transcription and inhibitors of proteases), it is possible to utilize an assay system using SDF-1 which is an original ligand for CXCR4, instead of HIV. More particularly, as an example of the screening system of a compound inhibiting the binding of SDF-1 to CXCR4, a system of measuring an effect on transitory increase of Ca ion induced by SDF-1 through CXCR4 is practicable since CXCR4 is a G protein-conjugated seven-times transmembrane-type receptor.
A human T cell expressing CXCR4, for example cells of CCRF-HSB2 (ATCC No. CCL-120.1) were suspended into RPMI-1640 medium, fetal bovine serum (FBS) (10%), Fura-2AM (5 μM) (Dojin Kagaku, cat# 343-05401), Probenecid (2.5 mM), and a HEPES buffer (20 mM, pH 7.4) so as to be 5×10^6 cell/ml, and the suspension was heated at 37° C. for 30 minutes under a light-shielded condition. Then, a 4 to 8 fold-diluted Hanks solution (1× Hanks), HEPES (20 mM, pH 7.4) and Probenecid (2.5 mM) were added thereto, and the whole was heated for another 30 minutes. After the cells were washed with a solution of 1× Hanks, HEPES (20 mM, pH 7.4) and Probenecid (2.5 mM), they were re-suspended into the solution so as to be 2×10^6 cell/ml. For the T cell on which Fura-2AM had been loaded, the transitory increase of Ca induced by the addition of recombinant SDF-1β dissolved in PBS(−) was detected by use of a suitable Ca detector. In the inhibition experiment, the inhibitory effect of a test compound (10 μM) on the transitory increase of Ca induced by the addition of recombinant SDF-1β were measured by adding SDF-1β at an amount so as to be final concentration of, for example, 30 nM at 3 minutes after the addition of the test compound. An inhibition rate (%) was calculated according to the following equation.
Inhibition rate=(Ec−Ea)/Ec×100
In the equation, each symbol means as follows: […]
Ec: measured value of the transitory increase of Ca induced by SDF-1β
Ea: measured value of the transitory increase of Ca induced by SDF-1β when a test compound was added.
The term inhibition denotes the relative decrease from the control value, in per cent. Regarding `CCCCCCCCCCCC(=O)O[C@H](CCCCCCCCCCC)CC(=O)N[C@H]1C(O)O[C@H](CO)[C@@H](OS(=O)(=O)O)[C@@H]1OC(=O)CCCCCCCCCCC` (stereo partly drawn) [Example 2 (5), 2-deoxy-2-[3R-(dodecanoyloxy)tetradecanoyl]amino-3-O-dodecanoyl-4-O-sulfo-D-glucopyranose], the inhibition at 10 µM was determined as 99%. Turning to `CCCCCCCCCCC[C@H](CC(=O)N[C@H]1C(O)O[C@H](CO)[C@@H](OS(=O)(=O)O)[C@@H]1OC(=O)CCCCCCCCC)OC(=O)CCCCCCCCC` (stereo partly drawn) [Example 2 (4), 2-deoxy-2-[3R-(decanoyloxy)tetradecanoyl]amino-3-O-decanoyl-4-O-sulfo-D-glucopyranose], the inhibition at 10 µM amounted to 94%. Turning to `CCCCCCCCCCC[C@H](CC(=O)N[C@H]1C(O)O[C@H](CO)[C@@H](OS(=O)(=O)O)[C@@H]1OC(=O)CCCCC)OC(=O)CCCCC` (stereo partly drawn) [Example 2 (3), 2-deoxy-2-[3R-(hexanoyloxy)tetradecanoyl]amino-3-O-hexanoyl-4-O-sulfo-D-glucopyranose], the inhibition at 10 µM stood at 79%.

Staying with this assay, now noted: test compound 10 μM; SDF-1β 30 nM added 3 minutes after compound; CCRF-HSB2 human T cells loaded with Fura-2AM.
Turning to `CCCCCCCCCCCCCC(=O)O[C@@H](CCCCCCCCCCC)CC(=O)N[C@H]1C(O)O[C@H](C)[C@@H](OS(=O)(=O)O)[C@@H]1OC(=O)CCCCCCCCCCCCC` (stereo partly drawn) [Example 4, 2,6-deoxy-2-[3S-(tetradecanoyloxy)tetradecanoyl]amino-3-O-tetradecanoyl-4-O-sulfo-D-glucopyranose], the “Inhibition rate (%)” value is 92%. As to `CCCCCCCCCCCCC[C@@H](CC(=O)N[C@H]1C(O)O[C@H](CO)[C@@H](OS(=O)(=O)[O-])[C@@H]1OC(=O)CCCCCCCCc1ccccc1)OC(=O)CCCCCCCCc1ccccc1.[Na+]` (stereo partly drawn) [Compound (17), 2-Deoxy-2-[3S-[9-phenylnonanoyloxy]hexadecanoyl]amino-3-O-[9-phenylnonanoyl]4-O-sulfo-D-glucopyranose sodium salt], the “Inhibition rate (%)” value amounted to 93%.

Take `CCCCCCCCCCC[C@@H](CC(=O)N[C@H]1CO[C@H](C)[C@@H](OS(=O)(=O)O)[C@@H]1OC(=O)CCCCCCCCc1ccccc1)OC(=O)CCCCCCCCc1ccccc1` [Compound (12), 2,6-deoxy-2-[3S-(9-phenylnonanoyloxy)tetradecanoyl]amino-3-O-(9-phenylnonanoyl)-4-O-sulfo-1,5-anhydro-D-glucitol]: the “Inhibition rate (%)” value is on record as 94%. Take `CCCCCCCCCCC[C@@H](CC(=O)N[C@H]1C(O)O[C@H](CO)[C@@H](OS(=O)(=O)[O-])[C@@H]1OC(=O)CCCCCCCCc1ccccc1)OC(=O)CCc1ccccc1.[Na+]` (stereo partly drawn) [Compound (14), 2-Deoxy-2-[3S-[3-phenylpropanoyloxy]tetradecanoyl]amino-3-O-[9-phenylnonanoyl]4-O-sulfo-D-glucopyranose sodium salt]: the “Inhibition rate (%)” value worked out at 96%.

Take `CCCCCCCCCCCCCC(=O)O[C@H]1[C@H](OS(=O)(=O)O)[C@@H](CO)OC(O)[C@@H]1NC(=O)c1ccc(OCCCCCCCCCC)c(OCCCCCCCCCC)c1` (stereo partly drawn) [Compound (9)]: the “Inhibition rate (%)” value is given as 93%. For `CCCCCCCCCCC[C@H](CC(=O)N[C@H]1C(O)O[C@H](CO)[C@@H](OS(=O)(=O)[O-])[C@@H]1OC(=O)CCCCCCCCc1ccccc1)OC(=O)CCCCCCCCc1ccccc1.[Na+]` (stereo partly drawn) [Compound (18), 2-Deoxy-2-R[3-[9-phenylnonanoyloxy]tetradecanoyl]amino-3-O-[9-phenylnonanoyl]4-O-sulfo-D-glucopyranose sodium salt], the “Inhibition rate (%)” value was 91%. As for `CCCCCCCCCCC[C@@H](CC(=O)N[C@H]1C(O)O[C@H](CO)[C@@H](OS(=O)(=O)[O-])[C@@H]1OC(=O)CCc1ccccc1)OC(=O)CCCCCCCCc1ccccc1.[Na+]` (stereo partly drawn) [Compound (15), 2-Deoxy-2-[3S-[9-phenylnonanoyloxy]tetradecanoyl]amino-3-O-[3-phenylpropanoyl]-4-O-sulfo-D-glucopyranose sodium salt], the “Inhibition rate (%)” value stood at 93%. As to `CCCCCCCCCCC[C@@H](CC(=O)N[C@H]1C(O)O[C@H](CO)[C@@H](OS(=O)(=O)O)[C@@H]1OC(=O)CCCCCCCc1ccc(OC)cc1)OC(=O)CCCCCCCc1ccc(OC)cc1` (stereo partly drawn) [Compound (3)], the “Inhibition rate (%)” value came out at 97%. Consider `CCCCCCCCCCC[C@@H](CC(=O)N[C@H]1C(O)O[C@H](CO)[C@@H](OS(=O)(=O)O)[C@@H]1OC(=O)CCCCCCCOc1cc(Cl)cc(Cl)c1)OC(=O)CCCCCCCOc1cc(Cl)cc(Cl)c1` (stereo partly drawn) [Compound (7), 2-deoxy-2-[3S-[8-(3,5-dichlorophenoxy)octanoyloxy]tetradecanoyl]amino-3-O-[8-(3,5-dichlorophenoxy)octanoyl]-4-O-sulfo-D-glucopyranose], for which the “Inhibition rate (%)” value worked out at 95%. For the compound `CCCCCCCCCCC[C@@H](CC(=O)N[C@H]1C(O)O[C@H](CO)[C@@H](OS(=O)(=O)O)[C@@H]1OC(=O)CCCCc1ccc(CCCCC)cc1)OC(=O)CCCCc1ccc(CCCCC)cc1` (stereo partly drawn) [Compound (5), 2-deoxy-2-[3S-[5-(4-pentylphenyl)pentanoyloxy]tetradecanoyl]amino-3-O-[5-(4-pentylphenyl)pentanoyl]4-O-sulfo-D-glucopyranose], the “Inhibition rate (%)” value is on record as 97%.

For the compound `O=C(C[C@H](CCCCCCc1ccccc1)OC(=O)CCCCCCCCc1ccccc1)N[C@H]1C(O)O[C@H](CO)[C@@H](OS(=O)(=O)O)[C@@H]1OC(=O)CCCCCCCCc1ccccc1` (stereo partly drawn) [Compound (2), 2-deoxy-2-[3S-(9-phenylnonanoyloxy)-9-phenylnonanoyl]amino-3-O-(9-phenylnonanoyl)-4-O-sulfo-D-glucopyranose], the “Inhibition rate (%)” value is listed as 96%. With `CCCCCCCCCCCCCC(=O)O[C@@H]1[C@@H](NC(=O)c2ccc(OCCCCCCCCCC)c(OCCCCCCCCCC)c2)[C@@H](OC)O[C@H](CO)[C@H]1OS(=O)(=O)O` [Compound (10), methyl 2-deoxy-2-(3,4-didecyloxybenzoyl) amino-3-O-tetradecanoyl-4-O-sulfo-α-D-glucopyranoside], the “Inhibition rate (%)” value came to 91%. Still for that read-out and setting: the value for `CCCCCCCCCCC[C@@H](CC(=O)N[C@H]1C(O)O[C@H](CO)[C@@H](OS(=O)(=O)[O-])[C@@H]1OC(=O)CCCCCCCCc1ccccc1)OC(=O)CCCCCCCCc1ccccc1.[Na+]` (stereo partly drawn) [Compound (1), 2-Deoxy-2-[3S-(9-phenylnonanoyloxy)tetradecanoyl]amino-3-O-(9-phenylnonanoyl)-4-O-sulfo-D-glucopyranose sodium salt] was 93%; that for `CCCCCCCCCCCC(CC(=O)NC1CCCC(OS(=O)(=O)O)C1OC(=O)CCCCCCCCc1ccccc1)OC(=O)CCCCCCCCc1ccccc1` (stereo not drawn) [Compound (13), 3(syn)-[3RS-(9-phenylnonanoyloxy)tetradecanoyl]amino-2RS (anti)-(9-phenylnonanoyloxy)cyclohexa-1RS-yl-O-sulfonic acid] was 86%. On to `CCCCCCCCC[C@@H](CC(=O)N[C@H]1C(O)O[C@H](CO)[C@@H](OS(=O)(=O)[O-])[C@@H]1OC(=O)CCCCCCCCc1ccccc1)OC(=O)CCCCCCCCc1ccccc1.[Na+]` (stereo partly drawn) [Compound (16), 2-Deoxy-2-[3S-[9-phenylnonanoyloxy]dodecanoyl]amino-3-O-[9-phenylnonanoyl]4-O-sulfo-D-glucopyranose sodium salt], for which the “Inhibition rate (%)” value is 92%.

For `CCCCCCCCCCC[C@@H](CC(=O)N[C@H]1C(O)O[C@H](CO)[C@@H](OS(=O)(=O)O)[C@@H]1OC(=O)CCCCCCCCc1ccc(Cl)cc1)OC(=O)CCCCCCCCc1ccc(Cl)cc1` (stereo partly drawn) [Compound (4)], the “Inhibition rate (%)” value turned out to be 96%. Consider `CCCCCCCCCCCC(CC(=O)N[C@H]1COC[C@@H](OS(=O)(=O)O)[C@@H]1OC(=O)CCCCCCCCc1ccccc1)OC(=O)CCCCCCCCc1ccccc1` (stereo partly drawn) [Compound (8), 2-deoxy-2-[3RS-(9-phenylnonanoyloxy)tetradecanoyl]amino-3-O-(9-phenylnonanoyl)-4-O-sulfo-1,5-anhydro-D-xylitol], for which the “Inhibition rate (%)” value was determined as 94%. As for `O=C(CCCCCCCCc1ccc2ccccc2c1)N[C@H]1C(O)O[C@H](CO)[C@@H](OS(=O)(=O)O)[C@@H]1OC(=O)CCCCCCCCc1ccc2ccccc2c1` (stereo partly drawn) [Compound (6), 2-deoxy-2-[9-(2-naphthyl)nonanoyl]amino-3-O-[9-(2-naphthyl)nonanoyl]-40-sulfo-D-glucopyranose], the “Inhibition rate (%)” value turned out to be 97%.
